Test results taken from patent publication US10758522B2, “Small molecule analogs of the nemo binding peptide” (THE SCRIPPS RESEARCH INSTITUTE, priority 2015, dated 2020).

Columns and labels:
NF-κB target genes = assay: qRT-PCR of NF-κB target genes in LPS-stimulated Raw 264.7 cells; format: cell-based, mouse; conditions: Raw 264.7, LPS
Experimental: Effect of the NBD mimetics on expression of NF-kB regulated genes in the Raw mouse macrophage cell line. Treatment of the Raw cells with the indicated drugs prior to addition of LPS reduced NF-kB-mediated gene expression as measured by RT-PCR.
To determine whether the inhibitory effect of the mimetics is TNF-α-dependent, LPS-mediated NF-κB activation via TLR4 was examined to determine a broader inhibitory effect of the novel NBD mimetics. NF-κB was stimulated in Raw 264.7 by 1 ug/ml of LPS for 2 hr and genes transcriptionally regulated by NF-κB were determined by qRT-PCR analysis. Both an IKK active site inhibitor IKKi VII (2 μM) and the 8K-NBD peptide (400 μM) were included as positive controls and the expression of COX2, IL-6, IL-1β, TNF-α, IκBα and iNOS were assessed.
Raw 264.7 cells were treated with a 50 μM solution of the SR compound for 30 minutes, and then the mRNA was harvested 2 hours after addition of 1 μg/mL LPS.
Snap frozen tissues were preserved in RNAlater RNA stabilization solution (ThermoFisher) before processed. Total RNA was extracted from cells or tissues using TRIZOL reagent (Life Technologies) and 1500 ng of messenger RNA (mRNA) was subjected to synthesize complementary DNA (cDNA) using SuperScript VILO cDNA synthesis kit. qRT-PCR was performed in a StepOnePlus Real-Time PCR system using Platinum SYBR Green qPCR SuperMix-UDG (ThermoFisher). Target gene expression was calculated using the comparative CT method (ΔΔCT) and normalized to an internal control gene Actb (β-actin). Primers used are as follows: Ptgs2 (COX-2) forward: […]; Ptgs2 (COX-2) reverse: […]; Nfkbia (IκBα) forward: […]; Nfkbia (IκBα) reverse: […]; Il1b (IL-1β) forward: […]; Il1b (IL-1β) reverse: […]; Nos2 (iNOS) forward: […]; Nos2 (iNOS) reverse: […]; Tnf (TNF) forward: […]; Tnf (TNF) reverse: […]; Il6 (IL-6) forward: […]; Il6 (IL-6) reverse: […]. Actb (β-actin) forward: […]; Actb (β-actin) reverse: […];

IKKβ-NEMO interaction = assay: Immunoprecipitation of NEMO and IKKβ immunoblot in Raw 264.7 macrophages and HEK293 cells; format: cell-based; conditions: Raw 264.7 macrophages / HEK293; mimetics 100 μM, 8K-NBD 400 μM
Experimental: The NBD mimetics reduce the interaction between IKKg (NEMO) and IKKß. The indicated concentrations of the drugs were added to HEK 293 or Raw 264.7 cells and cell extracts prepared 30 minutes later. Following immunoprecipitation (IP) of NEMO, the Western was probed for IKKß.
After treatment with the mimetics or NBD peptide, NEMO was immunoprecipitated by an anti-NEMO antibody and IKKβ was immunoblotted to determine the binding of IKKβ to NEMO.
HEK293 or Raw264.7 cells were seeded at 1×10^6 cells/well in 6-well plates and treated with vehicle, small molecule or NBD peptide for indicated time. Cells were lysed in NP-40 lysis buffer supplemented with 1× protease inhibitor cocktails (sigma). Protein was immunoprecipitated by incubating 150 μg of lysate with 1 μg of anti-NEMO antibody (Santa Cruz) on a rotating shaker at 4° C. for 4 hrs, followed by incubation with 20 ul of Protein A agarose beads (ThermoFisher) for 1 hr. Beads were washed in NP40 buffer 3 times and PBS once. Protein was then denatured in SDS-sample buffer and resolved by MINI-PROTEAN TGX 4-15% SDS-PAGE. Anti-IKKβ (1:1000 CST) was used to assess binding of IKKβ to NEMO and anti-NEMO (1:1000 CST) or IgG were used to as a loading control.

[1] = test system: K14-Cre; Ercc1−/flox mice; assay: Topical treatment of skin aging in K14-Cre; Ercc1−/flox mice; format: in vivo, mouse; conditions: daily
Experimental: To test the ability of NBDA-1 to function in vivo, the drug was tested in several models of aging. In FIG. 12, the ability of topical treatment of NBDA-1 to reduce signs of skin aging is shown. Areas on the back of normal mice or mice with enhanced skin aging (K14-Cre; Ercc1^−/flox) were shaved and then treated daily with drugs or control creams.

[2] = molecular target: T1, IKK complex (IKKß, IKKα and NEMO) (Homo sapiens, UniProt Q9Y6K9); assay: Co-immunoprecipitation of NEMO with IKKß in 293 cells; format: cell-based; conditions: Zinc-5 at 4 hours, Zinc-13 at 1 hour, NBD peptide at 4 hours
T1 construct: analyzed by Western blot for the level of co-precipitated NEMO; endogenous in cells; host or cells: 293 (HEK293) cells
T1 sequence (Q9Y6K9 whole entry, one chain of several): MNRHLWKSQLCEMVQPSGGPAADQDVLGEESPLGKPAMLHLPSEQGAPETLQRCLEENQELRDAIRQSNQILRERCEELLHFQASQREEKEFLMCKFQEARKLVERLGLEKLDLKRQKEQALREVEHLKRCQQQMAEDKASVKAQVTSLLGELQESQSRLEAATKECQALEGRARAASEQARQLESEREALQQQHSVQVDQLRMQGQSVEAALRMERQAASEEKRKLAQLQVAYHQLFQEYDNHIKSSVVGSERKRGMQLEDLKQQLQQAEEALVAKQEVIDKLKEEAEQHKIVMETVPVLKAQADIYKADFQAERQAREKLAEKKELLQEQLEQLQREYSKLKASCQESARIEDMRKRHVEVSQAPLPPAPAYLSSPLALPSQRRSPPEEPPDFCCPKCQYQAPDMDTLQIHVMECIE
From the text: FIG. 8 is a bar graph showing the inhibition of TNFα by NBDA-1 (Zinc-13). […] In addition, we have examined the ability of the compounds to disrupt the IKK complex, comprised of IKKß, IKKα and NEMO.
A non-functional, related compound Zinc-7 had no effect.

mdx mice = assay: Chronic treatment of mdx mice (Duchenne muscular dystrophy model); format: in vivo, mouse; conditions: ip 3 times/week for 4 weeks
From the text: Mdx mice develop normally at birth, and then undergo a massive myonecrosis starting at three weeks. Treatment of mdx mice with IKK/NF-kB inhibitors effectively reduces inflammation, block necrosis and increase muscle regeneration. Mdx mice were chronically treated with vehicle, SR12343, SR12460 or 8K-NBD starting from day 21, 3 times/week for 4 weeks. […] To determine if SR12343 and SR12460 improve muscle pathology, tibialis anterior (TA) muscle was stained with hematoxylin and eosin (H&E) to assess inflammatory infiltration, necrosis, central nucleation and fibrosis. […] Fiber size in centrally nucleated and non-centrally nucleated myofibers was also smaller in mice treated with SR12343 and 8K-NBD, indicating active reconstruction of myofiber during the regenerative phase.
To determine muscle strength post-treatment, grip strength test on forelimbs was performed 2 weeks and 4 weeks post-treatment.
HEK293 cells were grown in Dulbecco's Modification of Eagles Medium (with 4.5 g/L glucose and L-glutamine), supplemented with 10% fetal bovine serum, penicillin and streptomycin. Raw264.7 cells were cultured in RPMI-1640 media containing 10% heat-inactivated fetal bovine serum, penicillin and streptomycin. C57BL/10ScSn-Dmd^mdx/J and female C57BL/6 mice were purchased from the Jackson Laboratory. Mice were housed in the animal facilities of Scripps Fla. under constant temperature and humidity. Animal protocols used in this study were approved by Scripps Fla. Institutional Animal Care and Use Committees. Three week-old sex-matched mdx mice were dosed with SR12343 (30 mg/kg), […] (30 mg/kg), 8K-NBD peptide (10 mg/kg) or vehicle by intraperitoneal (i.p.) injection 3 times per week for 4 weeks. Mice were sacrificed at 7 weeks of age by carbon dioxide inhalation and tibialis anterior was collected for histological analysis.
Seven week-old treated or untreated mdx mice were measured for forelimb grip strength using a digital grip strength meter paired with a metal grid (Bioseb). Mice were allowed to grip the metal grid tightly and readings were obtained by gently pulling the tail backward until release. Five sequential measurements were performed and the average force was calculated.
Tissues fixed in 10% neutral buffered formalin (NBF) overnight were imbedded in paraffin. Tissue was sectioned at […] using a microtome. H&E staining was conducted following a standard protocol (REF).

Ercc1−/Δ mice = assay: Systemic treatment of Ercc1−/Δ mice, intervertebral disc proteoglycan; format: in vivo, mouse; conditions: IP 3× a week, 10 mg/kg for 8 weeks
Experimental: The ability of the compounds to work systemically was also tested. In these experiments, Ercc1^−/Δ mice with accelerated aging (lifespan of 5 months) were treated systemically, 3× a week, by IP injection at a dose of 10 mg/kg for 8 weeks. Since we previously had shown that the NF-κB is a key factor in driving intervertebral disc degenerated, we assessed the effects of treatment on proteoglycan synthesis and content in the discus following treatment.

**Q.** For “8K-NBD peptide: 8K-NBD (KKKKKKKKGGTALDWSWLQTE) peptide, NEMO binding domain peptide with protein transduction domain, control [reference compound]”, which iNOS expression (NF-κB target genes) is on record?
**A.** significantly inhibited

**Q.** And the “disruption of IKKβ-NEMO interaction (NEMO IP, IKKβ blot)” value (IKKβ-NEMO interaction)?
**A.** able to disrupt the protein-protein interaction in macrophages at 400 μM

**Q.** And the “epidermal thickness / skin architecture” value [1]?
**A.** improved skin architecture and increased epidermal thickness

**Q.** And the “level of NEMO co-immunoprecipitated with IKKß” value [2]?
**A.** reduced the level of co-immunoprecipitated NEMO

**Q.** And the “expression of eMyHC and Pax 7 in TA muscle (qRT-PCR)” value (mdx mice)?
**A.** increased eMyHC expression, but to a lower extent compared to SR12343

**Q.** And the “fiber size in centrally nucleated and non-centrally nucleated myofibers” value (mdx mice)?
**A.** smaller

**Q.** And the “tibialis anterior muscle pathology (H&E)” value (mdx mice; SR compounds 30 mg/kg, 8K-NBD 10 mg/kg)?
**A.** reduced inflammatory cell infiltration and necrosis and also promoted muscle regeneration

**Q.** What about the “proteoglycan synthesis and content in the intervertebral disc” value (Ercc1−/Δ mice) of the same substance?
**A.** restored proteoglycan synthesis and content back to levels seen in normal, young mice
